Assay results reported in patent US4576948A, “Composition and method for inhibiting terminal deoxyribonucleotidyl transferase activity” (Trustees Boston University, priority 1983, dated 1986).
One block for each compound: values may come before it.

Tests used:
[1] = biological target: T1, terminal deoxyribonucleotidyl transferase (TdT) (Bos taurus, UniProt P06526); test: TdT assay (3H-dGMP incorporation) with purified TdT; format: biochemical, calf; settings: for CMP 3H--dGMP inc.: 200 μM compound, 35° C., 1 hour, 10 μM 3H-dGTP, DMSO only control 12,131; for CMP Incorporated, TdT: additive at 400 M (so in the source), DMSO control 12,131; for TdT inhibition (in words): concentration not given
T1 construct: classical preparation may be proteolysed two-subunit form of one gene product
Experimental: (§1) TdT was purified from normal calf thymus gland by a procedure utilizing the successive steps of homogenization, ion exchange […] and gel filtration. Bollum et al, "The Enzymes", (R. D. Boxer Ed.) pp. 145-171, Academic Press, New York. TdT was assayed at 35° C. for 1 hour in 0.1 ml total volume of a reaction mixture comprising 0.05 M Tris-HCl (pH 8.3), 2 mM […], 0.6 mM MnCl2, 10 μg bovine serum albumin (BSA), 1 μg oligodA14-18, 10 μM ^3 H-dGTP (d-triphosphate) and chelex distilled H2 O. When used, the 6-anilinouracil derivates were added at various concentrations in 5 μl DMSO per 100 μl reaction mix. Other DNA polymerases (α, β, and γ) were assayed using standard assay conditions, as previously described by Wright, Baril and Brown, Nucleic Acids Research, Vol. 8, No. 1, pp. 99-109, 1980.
Reaction conditions used were as noted above.

[2] = biological target: T2, HeLa cell polymerase α (Homo sapiens, UniProt P09884); settings: background statement; no other mammalian cell DNA polymerase inhibited; cited from earlier work
[3] = tested on: HeLa cells; settings: background statement, 'in vivo'; cited from earlier work
[4] = biological target: T3, HeLa cell polymerase γ (Homo sapiens, UniProt P54098); test: DNA polymerase γ assay, standard assay conditions; format: biochemical; settings: for effect on HeLa cell polymerase γ (in words): 400 μM; for CMP Incorporated, Pol γ: additive at 400 M (so in the source), DMSO control 7,490
T3 sequence (P54098 1-1239): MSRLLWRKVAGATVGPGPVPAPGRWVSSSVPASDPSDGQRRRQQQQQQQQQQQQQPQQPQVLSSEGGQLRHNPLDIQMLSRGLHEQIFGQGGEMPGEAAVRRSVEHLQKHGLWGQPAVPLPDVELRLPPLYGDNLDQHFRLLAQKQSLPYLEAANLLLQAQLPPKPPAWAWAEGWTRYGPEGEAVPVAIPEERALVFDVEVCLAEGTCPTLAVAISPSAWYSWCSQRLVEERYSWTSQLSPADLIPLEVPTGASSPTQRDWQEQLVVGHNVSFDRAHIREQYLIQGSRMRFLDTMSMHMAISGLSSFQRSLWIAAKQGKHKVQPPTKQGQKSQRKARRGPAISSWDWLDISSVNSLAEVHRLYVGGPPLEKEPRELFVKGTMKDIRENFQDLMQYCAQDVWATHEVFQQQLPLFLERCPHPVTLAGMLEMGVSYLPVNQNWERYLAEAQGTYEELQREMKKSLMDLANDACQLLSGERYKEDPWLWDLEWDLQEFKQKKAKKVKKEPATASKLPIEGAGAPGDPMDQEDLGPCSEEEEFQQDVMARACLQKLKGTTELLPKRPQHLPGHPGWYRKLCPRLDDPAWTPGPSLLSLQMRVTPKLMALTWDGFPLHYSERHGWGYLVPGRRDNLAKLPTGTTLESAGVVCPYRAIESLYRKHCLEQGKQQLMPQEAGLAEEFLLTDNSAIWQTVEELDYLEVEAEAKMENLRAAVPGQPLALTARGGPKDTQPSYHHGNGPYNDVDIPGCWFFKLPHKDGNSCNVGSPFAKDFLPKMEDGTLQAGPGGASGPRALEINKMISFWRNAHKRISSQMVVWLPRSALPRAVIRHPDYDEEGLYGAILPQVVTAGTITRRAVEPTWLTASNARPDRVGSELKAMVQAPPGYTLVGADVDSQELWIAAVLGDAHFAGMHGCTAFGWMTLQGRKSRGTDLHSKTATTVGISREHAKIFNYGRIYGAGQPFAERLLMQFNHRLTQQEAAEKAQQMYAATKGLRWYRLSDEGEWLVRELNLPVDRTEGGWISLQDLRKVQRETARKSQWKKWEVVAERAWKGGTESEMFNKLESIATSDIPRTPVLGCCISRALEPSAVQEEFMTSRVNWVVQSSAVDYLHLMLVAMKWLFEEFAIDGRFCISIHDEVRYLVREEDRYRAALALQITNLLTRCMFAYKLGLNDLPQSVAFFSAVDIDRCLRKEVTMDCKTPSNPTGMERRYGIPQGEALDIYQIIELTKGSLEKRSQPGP
T3 sequence (Q9UHN1 2-485 partner): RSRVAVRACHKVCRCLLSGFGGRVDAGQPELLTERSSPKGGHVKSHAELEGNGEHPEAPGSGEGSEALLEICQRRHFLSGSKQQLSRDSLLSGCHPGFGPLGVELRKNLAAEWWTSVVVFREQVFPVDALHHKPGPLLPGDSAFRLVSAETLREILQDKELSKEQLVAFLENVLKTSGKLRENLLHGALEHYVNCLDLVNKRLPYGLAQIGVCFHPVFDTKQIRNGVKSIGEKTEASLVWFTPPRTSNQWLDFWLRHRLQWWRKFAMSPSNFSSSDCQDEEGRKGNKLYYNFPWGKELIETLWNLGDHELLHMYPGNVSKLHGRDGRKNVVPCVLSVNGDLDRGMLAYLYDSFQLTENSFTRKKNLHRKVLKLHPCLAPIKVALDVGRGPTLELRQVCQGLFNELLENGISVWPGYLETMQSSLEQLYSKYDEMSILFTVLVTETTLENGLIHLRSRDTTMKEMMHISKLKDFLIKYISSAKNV
Experimental: as §1

[5] = biological target: T2, HeLa cell polymerase α; test: DNA polymerase α assay, standard assay conditions; format: biochemical; settings: for effect on HeLa cell polymerase α (in words): 400 μM; for CMP Incorporated, Pol α: additive at 400 M (so in the source), DMSO control 15,040
Experimental: as §1

[6] = biological target: HeLa cell polymerase β (Homo sapiens, UniProt P06746); test: DNA polymerase β assay, standard assay conditions; format: biochemical; settings: for effect on HeLa cell polymerase β (in words): 400 μM; for CMP Incorporated, Pol β: additive at 400 M (so in the source), DMSO control 5,221
Experimental: as §1

[7] = tested on: HeLa cells; test: Inhibition of cell proliferation, HeLa (TdT-negative); format: cell-based, Human; settings: even at 400 μM; 1% DMSO; viable cells at 72 hours
Experimental: (§2) HeLa cells, El-4cells, L1210 cells were grown in suspended cell culture under standard conditions in RPMI medium, at 37° C. in moist air containing 5% CO2. All inhibitions were performed using a final concentration of 1% DMSO as inhibitor solvent. Control cells were therefore grown in the presence of 1% DMSO.
(§3) Compound GW18C (6-(p-aminoanilo) uracil) was prepared as a 40 mM stock solution in pre-heated DMSO. This stock solution was progressively diluted to give a range of operating inhibitory concentrations between 1×10^-9 M and […]. Inhibition was measured by comparing the number of viable cells in control cultures at the end of 72 hours with the number in cultures exposed to inhibitor.

[8] = tested on: EL-4; test: Inhibition of cell proliferation, EL-4 (TdT-positive); format: cell-based, Mouse
Experimental: as §2, §3

[9] = tested on: L1210 cells; test: Inhibition of cell proliferation, L1210 (TdT-negative); format: cell-based, Mouse; settings: even at 400 μM; 1% DMSO; viable cells at 72 hours
Experimental: as §2, §3

T2 sequence (P09884 whole entry): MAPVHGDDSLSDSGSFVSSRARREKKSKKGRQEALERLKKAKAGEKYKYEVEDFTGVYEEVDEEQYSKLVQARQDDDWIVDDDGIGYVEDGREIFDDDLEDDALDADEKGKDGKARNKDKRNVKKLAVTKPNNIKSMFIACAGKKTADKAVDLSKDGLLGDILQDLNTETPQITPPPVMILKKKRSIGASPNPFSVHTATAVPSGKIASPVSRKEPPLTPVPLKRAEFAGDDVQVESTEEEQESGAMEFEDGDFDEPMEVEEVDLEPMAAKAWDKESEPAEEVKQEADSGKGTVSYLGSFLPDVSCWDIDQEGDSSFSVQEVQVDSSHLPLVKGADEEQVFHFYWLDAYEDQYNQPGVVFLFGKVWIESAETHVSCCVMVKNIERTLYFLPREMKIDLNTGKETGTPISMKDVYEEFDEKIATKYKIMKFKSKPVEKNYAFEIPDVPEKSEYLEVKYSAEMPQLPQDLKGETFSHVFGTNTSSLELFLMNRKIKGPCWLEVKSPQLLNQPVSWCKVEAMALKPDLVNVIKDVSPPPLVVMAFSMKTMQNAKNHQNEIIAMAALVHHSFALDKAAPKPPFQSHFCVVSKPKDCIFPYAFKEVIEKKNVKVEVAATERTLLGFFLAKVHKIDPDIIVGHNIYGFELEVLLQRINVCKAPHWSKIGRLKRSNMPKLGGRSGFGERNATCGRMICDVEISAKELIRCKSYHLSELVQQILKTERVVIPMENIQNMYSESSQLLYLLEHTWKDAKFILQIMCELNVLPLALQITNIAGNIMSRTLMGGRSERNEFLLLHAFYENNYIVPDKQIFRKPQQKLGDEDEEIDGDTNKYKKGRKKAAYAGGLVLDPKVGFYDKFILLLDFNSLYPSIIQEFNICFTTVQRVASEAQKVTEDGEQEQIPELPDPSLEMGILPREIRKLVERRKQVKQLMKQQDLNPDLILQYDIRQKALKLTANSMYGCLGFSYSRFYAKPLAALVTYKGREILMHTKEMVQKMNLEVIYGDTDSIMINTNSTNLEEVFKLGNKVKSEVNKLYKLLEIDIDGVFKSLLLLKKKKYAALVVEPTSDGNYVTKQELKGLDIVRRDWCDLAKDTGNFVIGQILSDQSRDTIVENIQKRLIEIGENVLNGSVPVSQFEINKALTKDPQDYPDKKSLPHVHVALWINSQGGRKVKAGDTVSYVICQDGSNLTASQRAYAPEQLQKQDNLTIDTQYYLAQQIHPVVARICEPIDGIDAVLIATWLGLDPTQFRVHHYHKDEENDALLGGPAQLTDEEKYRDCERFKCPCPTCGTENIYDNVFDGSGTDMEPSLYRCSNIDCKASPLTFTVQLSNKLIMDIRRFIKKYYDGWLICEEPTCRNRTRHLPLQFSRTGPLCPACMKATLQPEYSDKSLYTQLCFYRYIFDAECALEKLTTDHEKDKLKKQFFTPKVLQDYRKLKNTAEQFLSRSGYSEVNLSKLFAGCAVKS
T2 sequence (Q14181 whole entry partner): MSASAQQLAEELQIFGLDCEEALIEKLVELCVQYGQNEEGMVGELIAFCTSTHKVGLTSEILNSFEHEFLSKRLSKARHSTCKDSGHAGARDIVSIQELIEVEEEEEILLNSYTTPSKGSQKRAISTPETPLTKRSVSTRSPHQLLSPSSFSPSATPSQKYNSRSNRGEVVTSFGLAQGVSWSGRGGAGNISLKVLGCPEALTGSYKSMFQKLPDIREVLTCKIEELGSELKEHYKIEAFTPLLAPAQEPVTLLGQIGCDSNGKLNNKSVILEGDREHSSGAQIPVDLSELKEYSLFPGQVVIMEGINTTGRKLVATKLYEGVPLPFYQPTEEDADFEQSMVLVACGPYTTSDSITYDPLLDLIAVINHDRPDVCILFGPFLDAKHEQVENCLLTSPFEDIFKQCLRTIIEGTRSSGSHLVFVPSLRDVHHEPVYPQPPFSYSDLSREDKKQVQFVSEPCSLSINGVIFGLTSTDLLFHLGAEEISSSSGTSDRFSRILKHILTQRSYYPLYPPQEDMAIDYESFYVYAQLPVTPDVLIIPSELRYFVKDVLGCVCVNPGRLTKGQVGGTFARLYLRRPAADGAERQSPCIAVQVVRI
T2 sequence (P49642 whole entry partner): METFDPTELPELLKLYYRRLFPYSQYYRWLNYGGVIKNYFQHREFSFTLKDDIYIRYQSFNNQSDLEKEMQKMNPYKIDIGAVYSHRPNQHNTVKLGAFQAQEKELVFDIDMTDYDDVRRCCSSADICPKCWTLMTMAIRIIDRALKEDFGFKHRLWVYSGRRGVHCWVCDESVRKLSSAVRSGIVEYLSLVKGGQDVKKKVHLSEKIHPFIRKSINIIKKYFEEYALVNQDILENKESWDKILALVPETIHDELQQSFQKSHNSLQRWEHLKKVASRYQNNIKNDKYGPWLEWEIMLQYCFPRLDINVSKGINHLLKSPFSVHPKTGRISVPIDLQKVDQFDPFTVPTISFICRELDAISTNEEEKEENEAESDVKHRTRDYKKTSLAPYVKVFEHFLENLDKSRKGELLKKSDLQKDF
T2 sequence (P49643 whole entry partner): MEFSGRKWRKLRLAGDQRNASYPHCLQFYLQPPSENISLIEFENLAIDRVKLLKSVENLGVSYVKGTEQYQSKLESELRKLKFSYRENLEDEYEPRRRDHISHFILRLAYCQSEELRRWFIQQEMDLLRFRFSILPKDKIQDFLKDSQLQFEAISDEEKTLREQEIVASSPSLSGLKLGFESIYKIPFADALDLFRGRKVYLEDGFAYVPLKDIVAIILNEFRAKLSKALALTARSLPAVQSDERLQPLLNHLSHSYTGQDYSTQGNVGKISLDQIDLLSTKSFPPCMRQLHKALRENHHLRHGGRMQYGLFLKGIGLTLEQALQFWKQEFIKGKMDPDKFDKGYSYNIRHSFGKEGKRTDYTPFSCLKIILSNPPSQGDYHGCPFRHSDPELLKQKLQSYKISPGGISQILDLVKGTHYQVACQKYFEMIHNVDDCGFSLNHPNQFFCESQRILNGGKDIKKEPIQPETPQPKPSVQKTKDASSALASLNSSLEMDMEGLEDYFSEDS
T1 sequence (P06526 whole entry): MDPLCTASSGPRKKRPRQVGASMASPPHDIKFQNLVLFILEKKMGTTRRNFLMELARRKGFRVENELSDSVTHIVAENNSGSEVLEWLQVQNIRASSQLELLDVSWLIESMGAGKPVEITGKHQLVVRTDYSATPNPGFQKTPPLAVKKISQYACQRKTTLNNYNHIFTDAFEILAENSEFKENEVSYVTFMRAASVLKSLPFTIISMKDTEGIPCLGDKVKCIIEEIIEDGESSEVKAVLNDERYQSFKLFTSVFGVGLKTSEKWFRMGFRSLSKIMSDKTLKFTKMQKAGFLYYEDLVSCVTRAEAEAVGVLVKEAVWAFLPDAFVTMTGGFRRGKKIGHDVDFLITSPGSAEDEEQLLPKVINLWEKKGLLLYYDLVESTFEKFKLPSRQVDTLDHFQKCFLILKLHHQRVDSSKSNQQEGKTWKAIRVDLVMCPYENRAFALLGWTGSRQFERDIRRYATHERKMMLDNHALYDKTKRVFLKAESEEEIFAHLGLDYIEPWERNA

Compound: CCCCc1ccc(Nc2cc(=O)[nH]c(=O)[nH]2)cc1 [6-(p-n-butylanilino) uracil]
- inhibition of DNA polymerase alpha of HeLa cells (in words) [2]: specific inhibitor
- inhibition of HeLa cell division and DNA synthesis (in words) [3]: selective inhibitor

Compound: O=c1cc(NCCc2ccccc2)[nH]c(=O)[nH]1 [GW-7C, 6-(phenethylamino)uracil]
- CMP 3H--dGMP inc. [1]: 12,391 CMP

Compound: O=c1cc(Nc2ccc3c(c2)CCC3)[nH]c(=O)[nH]1 [GW-17B, 6-(3',4'-trimethyleneanilino)uracil]
- CMP 3H--dGMP inc. [1]: 12,383 CMP

Compound: COc1ccc(Nc2cc(=O)[nH]c(=O)[nH]2)cc1 [GW-17E, 6-(p-methoxyanilo)uracil]
- effect on HeLa cell polymerase γ (in words) [4]: not effected
- CMP Incorporated, Pol γ [4]: 7,223 CMP
- effect on HeLa cell polymerase α (in words) [5]: not effected
- CMP Incorporated, Pol α [5]: 15,217 CMP
- effect on HeLa cell polymerase β (in words) [6]: not effected
- CMP Incorporated, Pol β [6]: 5,492 cpm
- CMP 3H--dGMP inc. [1]: 6,980 CMP
- CMP Incorporated, TdT [1]: 4,964 CMP

Compound: Nc1ccc(Nc2cc(=O)[nH]c(=O)[nH]2)cc1 [GW-18C, 6-(p-aminoanilo)uracil]
- effect on HeLa cell polymerase γ (in words) [4]: not effected
- CMP Incorporated, Pol γ [4]: 7,165 CMP
- growth of HeLa cells (in words) [7]: not inhibited
- effect on HeLa cell polymerase α (in words) [5]: not effected
- CMP Incorporated, Pol α [5]: 15,417 CMP
- effect on HeLa cell polymerase β (in words) [6]: not effected
- CMP Incorporated, Pol β [6]: 5,218 cpm
- CMP 3H--dGMP inc. [1]: 5,198 CMP
- CMP Incorporated, TdT [1]: 3,102 CMP
- EL-4 proliferation (in words) ([8]; 400 μM, 1% DMSO): inhibited
- inhibition at 400 µM ([8]; Mus musculus, EL4, EL-4, at 72 hours, read-out: maximal growth inhibition): 80%
- growth of L1210 cells (in words) [9]: not inhibited

Compound: CCCCCNc1cc(=O)[nH]c(=O)[nH]1 [GW-18E, 6-(n-pentylamino)uracil]
- CMP 3H--dGMP inc. [1]: 11,674 CMP

Compound: CC(C)CCNc1cc(=O)[nH]c(=O)[nH]1 [GW-22A, 6-(iso-pentylamino)uracil]
- CMP 3H--dGMP inc. [1]: 12,005 CMP

Compound: O=c1cc(Nc2ccc(O)cc2)[nH]c(=O)[nH]1 [GW-22E, 6-(p-hydroxyanilino)uracil]
- CMP 3H--dGMP inc. [1]: 21,760 CMP

Compound: O=c1cc(Nc2cccc(O)c2)[nH]c(=O)[nH]1 [GW-23A]
- TdT inhibition (in words) [1]: not inhibitory

More lines, now with the values ahead:

- CMP 3H--dGMP inc. [1]: 11,988 CMP
Compound: 6-(p-methoxybenzyl)-6-aminouracil [GW-33E]

- CMP 3H--dGMP inc. [1]: 12,780 CMP
Compound: O=c1cc(NCc2ccccc2)[nH]c(=O)[nH]1 [GW-7B, 6-(benzylamino)uracil]

- CMP 3H--dGMP inc. [1]: 10,350 CMP
Compound: O=c1cc(Nc2ccccc2)[nH]c(=O)[nH]1 [GW-9E, 6-anilinouracil]

- CMP 3H--dGMP inc. [1]: 10,925 CMP
Compound: CCCCc1ccc(Nc2cc(=O)[nH]c(=O)[nH]2)cc1 [GW-11D, 6-(p-butylanilino)uracil]

- CMP 3H--dGMP inc. [1]: 14,160 CMP
Compound: CC(=O)Nc1ccc(CNc2cc(=O)[nH]c(=O)[nH]2)cc1 [GW-16C, 6-(p-acetamidobenzylamino)uracil]

- CMP 3H--dGMP inc. [1]: 13,442 CMP
Compound: O=c1cc(NC2CCCCC2)[nH]c(=O)[nH]1 [GW-18B, 6-(cyclohexylamino)uracil]

- CMP 3H--dGMP inc. [1]: 11,296 CMP
Compound: O=c1cc(NCC2CCCCC2)[nH]c(=O)[nH]1 [GW-20B, 6-(cyclohexylmethylamino)uracil]

- CMP 3H--dGMP inc. [1]: 12,038 CMP
Compound: O=c1cc(Nc2cccc3ccccc23)[nH]c(=O)[nH]1 [GW-28A, 6-(d-naphthylamino)uracil]

- TdT inhibition (in words) [1]: not inhibitory
Compound: Cc1ccc(Nc2cc(=O)[nH]c(=O)[nH]2)cc1CO [GW-28D]
